Here are results for 17 molecules from patent publication US20230219965A1 (KSQ Therapeutics, Inc., priority 2020, published 2023).

Where two headings read alike, the source gives them in different places.

One data set concerns the target USP1/UAF1 enzyme (Homo sapiens, UniProt O94782). The experiment in a line: USP1/UAF1 deubiquitination assay (ubiquitin-rhodamine 110 substrate). The class given is biochemical. To be noted: read-out: USP1 IC50 (Ub-Rho). In short, it runs like this:
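0.05 nM USP1/UAF1 was preincubated 10 min with compounds (dose response from 10 μM) in 50 mM Tris-HCl pH 7.8, 0.5 mM EDTA, 0.01% BSA, 1 mM DTT, 0.01% Tween-20. 150 nM ubiquitin-rhodamine 110 started the reaction, read kinetically 30 min at Ex480/Em540; IC50 by four-parameter fit versus no-enzyme and DMSO controls.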

Data set [1] is described as follows: ADME solubility determination in PBS at pH 2.0 and pH 7.4. The following applies: for solubility at 24 h: phosphate buffered saline, 25 °C, thermodynamic from solid. The class given is physicochemical. In short, it runs like this: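 Dried 10 mM DMSO stock residues taken up in PBS pH 7.4 or pH 2.0, shaken 24 h at 25° C. After centrifugation, supernatant quantified by LC-MS/MS against a standard of known concentration, with a dilution factor applied.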

Data set [2] can be described thus: Liver microsomal metabolic stability, human liver microsomes (HLM). The following applies: for half-life at 1 μM: human, liver microsomes. A general note: Microsomes from liver hold many membrane-bound enzymes, among them those of drug oxidation.
Data set [3] deals with Ub-PCNA levels in the nucleus of ES2 cells (USP1 activity). The experiment in a line: ES2 Ub-PCNA immunofluorescence (IF) assay. The class given is cell-based. The following applies: ES2 cells, 3 hours, Ub-PCNA immunofluorescence, read-out: USP1 IC50 (Ub-PCNA). In short, it runs like this: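 Cells plated overnight, then compound-treated for 3 h at 37° C (0.3% DMSO final), methanol-fixed and stained with anti-Ub-PCNA plus DAPI. Per-nucleus Ub-PCNA intensity imaged; cells above the 95% cutoff of untreated wells counted as positive, and percent positive cells used to derive AC50.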

Data set [4] can be described thus: Liver microsomal metabolic stability, rat liver microsomes (RLM). To be noted: 1 μM compound, 1 mg/mL microsomes, NADPH; for half-life at 1 μM: rat, liver microsomes, t1/2 (min) in RLM.
Procedure: Samples were prepared by adding 222.5 μL of a master solution (100 mM phosphate buffer and 1 mg/mL liver microsomes (HLM or RLM)) and 25 μL of a 10 mM NADPH solution to incubation plates, which were then warmed for 10 min. Each compound was separately dissolved in DMSO to prepare 10 mM stock solutions, which were then diluted to 100 μM with acetonitrile. A reaction was started by adding 2.5 μL of the 100 μM solution of each compound to separate incubation plates such that the final concentration of for each compound in each plate was 1 μM.
25 μL aliquots of each sample were taken at 0.5, 5, 10, 15, 20 and 30 minutes, and the reaction was stopped by adding 5 volumes of cold acetonitrile with IS (100 nM alprazolam, 200 nM caffeine and 100 nM tolbutamide). The samples were then centrifuged at 3,220 G for 30 minutes, and 100 μL of the supernatant fluid was mixed with 100 μL of ultra-pure H2O.
The samples were then analyzed by LC-MS/MS. Peak areas were determined from extracted ion chromatograms. Slope values (k) were determined by linear regression of the natural logarithm of the remaining percentage of the compound vs. incubation time curve. The in vitro half-life (in vitro t1/2) was determined from the slope value using the following equation:
[5] abbreviates: pH 2, aqueous buffer, PBS pH 2.0, 25° C., read-out: Solubility at pH 2.0.
[6] abbreviates: pH 7.4, aqueous buffer, PBS pH 7.4, 25° C., read-out: Solubility at pH 7.4.

USP1/UAF1 enzyme, sequence (O94782 whole entry): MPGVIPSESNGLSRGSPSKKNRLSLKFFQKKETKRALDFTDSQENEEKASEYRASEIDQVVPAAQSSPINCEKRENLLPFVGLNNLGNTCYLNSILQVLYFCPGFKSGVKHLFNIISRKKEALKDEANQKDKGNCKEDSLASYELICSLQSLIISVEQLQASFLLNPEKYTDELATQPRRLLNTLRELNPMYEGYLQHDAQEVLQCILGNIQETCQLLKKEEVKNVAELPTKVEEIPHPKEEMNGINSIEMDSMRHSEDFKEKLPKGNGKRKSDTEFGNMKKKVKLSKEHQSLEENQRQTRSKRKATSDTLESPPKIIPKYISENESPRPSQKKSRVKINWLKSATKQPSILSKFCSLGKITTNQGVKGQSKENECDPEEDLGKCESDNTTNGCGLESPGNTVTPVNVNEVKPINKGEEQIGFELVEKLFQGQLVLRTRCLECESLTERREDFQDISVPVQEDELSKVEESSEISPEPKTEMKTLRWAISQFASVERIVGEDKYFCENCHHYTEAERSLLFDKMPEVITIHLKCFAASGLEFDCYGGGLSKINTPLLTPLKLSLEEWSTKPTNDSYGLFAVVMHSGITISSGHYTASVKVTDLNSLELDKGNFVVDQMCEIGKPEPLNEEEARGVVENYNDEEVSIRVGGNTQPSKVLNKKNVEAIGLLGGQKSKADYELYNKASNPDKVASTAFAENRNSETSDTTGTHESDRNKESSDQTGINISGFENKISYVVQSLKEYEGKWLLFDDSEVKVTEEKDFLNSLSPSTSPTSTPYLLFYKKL
USP1/UAF1 enzyme, sequence (Q8TAF3 whole entry partner): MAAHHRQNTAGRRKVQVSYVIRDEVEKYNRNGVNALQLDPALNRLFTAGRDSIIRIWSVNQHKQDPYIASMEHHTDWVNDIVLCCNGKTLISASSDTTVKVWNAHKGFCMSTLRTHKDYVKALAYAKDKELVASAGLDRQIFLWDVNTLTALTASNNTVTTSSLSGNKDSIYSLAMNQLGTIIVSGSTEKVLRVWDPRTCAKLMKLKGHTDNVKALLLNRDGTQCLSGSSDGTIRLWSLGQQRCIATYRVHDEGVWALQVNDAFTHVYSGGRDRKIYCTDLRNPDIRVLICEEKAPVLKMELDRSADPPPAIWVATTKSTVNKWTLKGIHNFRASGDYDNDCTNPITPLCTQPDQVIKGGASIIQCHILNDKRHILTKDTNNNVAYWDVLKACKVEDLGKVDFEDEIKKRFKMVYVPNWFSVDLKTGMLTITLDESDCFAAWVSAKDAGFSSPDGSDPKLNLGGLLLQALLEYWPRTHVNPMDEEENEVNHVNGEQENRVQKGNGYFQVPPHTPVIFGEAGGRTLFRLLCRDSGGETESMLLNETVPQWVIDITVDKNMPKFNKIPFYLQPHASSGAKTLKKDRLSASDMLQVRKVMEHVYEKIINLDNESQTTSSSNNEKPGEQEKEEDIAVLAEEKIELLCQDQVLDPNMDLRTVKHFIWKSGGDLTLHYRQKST

For `Cc1cnn(C(C)C)c1-c1cc2n(n1)CCCN2Cc1ccc(-c2nc(C(F)(F)F)cn2C(C)C)cc1` [Example 54], the IC50 (in general, the concentration that gives 50% inhibition) on USP1/UAF1 enzyme is under 100 nM; in data set [3] (Homo sapiens, ES-2), under 100 nM. In addition, the values for the solubility at 24 h in data set [1] (setting [5]) and in data set [1] (setting [6]) were at least 10 µM and under 10 µM, respectively. Also, the half-life at 1 μM in data set [2] and in data set [4] was under 25 min each time.

As to `CCn1cc(C(F)(F)F)nc1-c1ccc(CN2CC3(CC3)Cn3nc(-c4c(OC)ncnc4C4CC4)cc32)cc1F` [Example 30], the IC50 at USP1/UAF1 enzyme was under 100 nM; in data set [3] (Homo sapiens, ES-2) it was under 100 nM. The solubility (usually the dissolved amount per volume that the medium holds) at 24 h is at least 10 µM in data set [1] (setting [5]) and under 10 µM in data set [1] (setting [6]). Moreover, the half-life at 1 μM in data set [2] and in data set [4] was under 25 min each time.

On to `Cc1cc(C(F)(F)F)nn1-c1ccc(CN2C(=O)CCn3nc(-c4c(Cl)cnn4C(C)C)cc32)cc1F` [Example 104], for which the IC50 on USP1/UAF1 enzyme is under 100 nM; in data set [3] (Homo sapiens, ES-2), 100 to 500 nM. Moreover, the solubility at 24 h in data set [1] (setting [5]) and in data set [1] (setting [6]) was under 10 µM throughout. The half-life at 1 μM in data set [2] and in data set [4] was over 25 min in each case.

Turning to `CCn1cc(C#N)nc1-c1ccc(NC2CCCn3nc(-c4c(Cl)cnn4C(C)C)cc32)cc1` (stereo not drawn) [Example 247, 2-(4-((2-(4-chloro-1-isopropyl-1H-pyrazol-5-yl)-4,5,6,7-tetrahydropyrazolo[1,5-a]pyridin-4-yl)amino)phenyl)-1-ethyl-1H-imidazole-4-carbonitrile], the IC50 at USP1/UAF1 enzyme was under 100 nM; in data set [3] (Homo sapiens, ES-2), 100 to 500 nM. For the same molecule, the solubility at 24 h in data set [1] (setting [5]) and in data set [1] (setting [6]) was under 10 µM in each case. In addition, the half-life at 1 μM in data set [2] and in data set [4] was under 25 min each time.

For `COc1ncnc(C2CC2)c1-c1cc2n(n1)CCCN2Cc1ccc(-n2nc(C(F)(F)F)cc2C)cc1` [Example 27], the IC50 on USP1/UAF1 enzyme is under 100 nM; in data set [3] (Homo sapiens, ES-2), under 100 nM. Further, the solubility at 24 h in data set [1] (setting [5]) is at least 10 µM; in data set [1] (setting [6]), under 10 µM. Moreover, the half-life at 1 μM in data set [2] and in data set [4] was under 25 min each time.

In the case of `CC(C)n1ncc(Cl)c1-c1cc2n(n1)CCCN2Cc1ccc(-c2nc(C(F)(F)F)cn2C)c(F)c1` [Example 61], the IC50 on USP1/UAF1 enzyme was under 100 nM; in data set [3] (Homo sapiens, ES-2), under 100 nM. The solubility at 24 h in data set [1] (setting [5]) and in data set [1] (setting [6]) was under 10 µM each time. Moreover, the half-life at 1 μM in data set [2] and in data set [4] was under 25 min each time.

Take `COc1ncnc(C2CC2)c1-c1nc2n(n1)CCC(=O)N2[C@H](C)c1ccc(-c2nc(C(F)(F)F)cn2C(C)C)c(F)c1` [Example 174]: the IC50 was under 100 nM at USP1/UAF1 enzyme and under 100 nM in data set [3] (Homo sapiens, ES-2). In addition, the solubility at 24 h in data set [1] (setting [5]) and in data set [1] (setting [6]) was at least 10 µM each time. Moreover, the half-life at 1 μM in data set [2] and in data set [4] was over 25 min throughout.

As for `COc1ncnc(C2CC2)c1-c1nc2n(n1)CCC(=O)N2[C@H](C)c1ccc(-c2nc(C(F)(F)F)cn2C)c(F)c1` [Example 197], the IC50 is under 100 nM on USP1/UAF1 enzyme and under 100 nM in data set [3] (Homo sapiens, ES-2). Also, the solubility at 24 h in data set [1] (setting [5]) and in data set [1] (setting [6]) was at least 10 µM throughout. Moreover, the half-life at 1 μM in data set [2] and in data set [4] was over 25 min each time.

With `CCn1cc(C(F)(F)F)nc1-c1ccc([C@@H](C)N2C(=O)CCn3nc(-c4c(Cl)cnn4C(C)C)cc32)cn1` [Example 139], the IC50 on USP1/UAF1 enzyme is under 100 nM; in data set [3] (Homo sapiens, ES-2) it was 100 to 500 nM. Further, the solubility at 24 h in data set [1] (setting [5]) and in data set [1] (setting [6]) was under 10 µM each time. Further, the half-life at 1 μM in data set [2] and in data set [4] was over 25 min throughout.

In the case of `CC(C)n1cc(C(F)(F)F)nc1-c1ccc(CN2C(=O)CCn3nc(-c4c(Cl)cnn4C(C)C)nc32)cc1F` [Example 40], the IC50 on USP1/UAF1 enzyme is under 100 nM; in data set [3] (Homo sapiens, ES-2), 100 to 500 nM. For the same molecule, the solubility at 24 h in data set [1] (setting [5]) and in data set [1] (setting [6]) was under 10 µM in each case. Besides, the half-life at 1 μM in data set [2] and in data set [4] was over 25 min throughout.

With `COc1cc(CN2C(=O)CCn3nc(-c4c(OC)ncnc4C4CC4)cc32)cc(F)c1-c1nc(C(F)(F)F)cn1C(C)C` [Example 144], the IC50 at USP1/UAF1 enzyme is under 100 nM; in data set [3] (Homo sapiens, ES-2), under 100 nM. Moreover, the solubility at 24 h in data set [1] (setting [5]) is at least 10 µM; in data set [1] (setting [6]), under 10 µM. Further, the half-life at 1 μM in data set [2] and in data set [4] was over 25 min throughout.

Take `COc1cc(C(F)(F)F)nn1-c1ccc(CN2C(=O)CCn3nc(-c4c(C)cnn4C(C)C)cc32)cc1F` [Example 12, 4-(3-fluoro-4-(5-methoxy-3-(trifluoromethyl)-1H-pyrazol-1-yl)benzyl)-2-(1-isopropyl-4-methyl-1H-pyrazol-5-yl)-6,7-dihydropyrazolo[1,5-a]pyrimidin-5(4H)-one]: the IC50 on USP1/UAF1 enzyme is under 100 nM; in data set [3] (Homo sapiens, ES-2) it was 100 to 500 nM. Further, the solubility at 24 h in data set [1] (setting [5]) and in data set [1] (setting [6]) was under 10 µM in each case. In addition, the half-life at 1 μM in data set [2] and in data set [4] was under 25 min throughout.

In the case of `CCn1cc(C(F)(F)F)nc1-c1ccc(NC2CCCn3nc(-c4c(OC(F)F)ncnc4C4CC4)cc32)cc1` (stereo not drawn) [Example 250, 2-(4-cyclopropyl-6-(difluoromethoxy)pyrimidin-5-yl)-N-(4-(1-ethyl-4-(trifluoromethyl)-1H-imidazol-2-yl)phenyl)-4,5,6,7-tetrahydropyrazolo[1,5-a]pyridin-4-amine], the 50% inhibitory concentration (IC50) on USP1/UAF1 enzyme was under 100 nM; in data set [3] (Homo sapiens, ES-2) it was under 100 nM. Also, the solubility at 24 h in data set [1] (setting [5]) and in data set [1] (setting [6]) was under 10 µM throughout. Moreover, the half-life at 1 μM in data set [2] and in data set [4] was over 25 min in each case.

`COc1cc(CN2C(=O)CCn3nc(-c4c(Cl)cnn4C(C)C)cc32)ccc1-c1nc(C(F)(F)F)cn1C(C)C` [Example 109]: the IC50 on USP1/UAF1 enzyme is under 100 nM; in data set [3] (Homo sapiens, ES-2), under 100 nM. In addition, the solubility at 24 h in data set [1] (setting [5]) and in data set [1] (setting [6]) was under 10 µM in each case. Besides, the half-life at 1 μM in data set [2] and in data set [4] was over 25 min throughout.

Consider `CCn1cc(C(F)(F)F)nc1-c1ccc([C@H](C)N2C(=O)CCn3nc(-c4c(OC)ncnc4C4CC4)nc32)cc1Cl` [Example 212], for which the IC50 (at USP1/UAF1 enzyme; in data set [3]) was under 100 nM in each case. Moreover, in data set [1] (PBS pH 2.0, 25° C., 24 hours), the “Solubility at pH 2.0 (μM)” value is “++ (“++” indicates 10 μM or greater)”. Besides, in data set [1] (PBS pH 7.4, 25° C., 24 hours), the “Solubility at pH 7.4 (μM)” value was “++ (“++” indicates 10 μM or greater)”. Further, the “t1/2 (min) in HLM” value in data set [2] (human liver microsomes, 1 μM compound, 1 mg/mL microsomes, NADPH) was “++ (“++” indicates 25 minutes greater)”. Further, the “t1/2 (min) in RLM” value in data set [4] was “++ (“++” indicates 25 minutes greater)”.

For `CCn1cc(C(F)(F)F)nc1-c1ccc([C@H](C)N2C(=O)CCn3nc(-c4c(C#N)cnn4C(C)C)cc32)cc1F` (single isomer, unassigned) [Example 325], the IC50 is 100 to 500 nM at USP1/UAF1 enzyme and 100 to 500 nM in data set [3] (Homo sapiens, ES-2). The solubility at 24 h in data set [1] (setting [5]) and in data set [1] (setting [6]) was under 10 µM each time. In addition, the half-life at 1 μM in data set [2] and in data set [4] was over 25 min in each case.

For the molecule `COc1cc(CN2C(=O)CCn3nc(-c4c(OC)ncnc4C4CC4)nc32)ccc1-c1nc(C(F)(F)F)cn1C(C)C` [Example 166], the IC50 fell in the range of 100 to 500 nM on USP1/UAF1 enzyme and 100 to 500 nM in data set [3] (Homo sapiens, ES-2). In addition, the solubility at 24 h in data set [1] (setting [5]) and in data set [1] (setting [6]) was at least 10 µM throughout. The half-life at 1 μM in data set [2] and in data set [4] was over 25 min in each case.
